Reference: patent US20240109881A1, “Heteroaryl Compounds as Ligand Directed Degraders of IRAK4” (Bristol-Myers Squibb Company, priority 2022, published 2024)

Biological target: T1, IRAK4 (Homo sapiens, UniProt Q9NWZ3)
T1 construct: endogenous in cells; host or cells: THP-1 cells
T1 sequence (Q9NWZ3 1-460): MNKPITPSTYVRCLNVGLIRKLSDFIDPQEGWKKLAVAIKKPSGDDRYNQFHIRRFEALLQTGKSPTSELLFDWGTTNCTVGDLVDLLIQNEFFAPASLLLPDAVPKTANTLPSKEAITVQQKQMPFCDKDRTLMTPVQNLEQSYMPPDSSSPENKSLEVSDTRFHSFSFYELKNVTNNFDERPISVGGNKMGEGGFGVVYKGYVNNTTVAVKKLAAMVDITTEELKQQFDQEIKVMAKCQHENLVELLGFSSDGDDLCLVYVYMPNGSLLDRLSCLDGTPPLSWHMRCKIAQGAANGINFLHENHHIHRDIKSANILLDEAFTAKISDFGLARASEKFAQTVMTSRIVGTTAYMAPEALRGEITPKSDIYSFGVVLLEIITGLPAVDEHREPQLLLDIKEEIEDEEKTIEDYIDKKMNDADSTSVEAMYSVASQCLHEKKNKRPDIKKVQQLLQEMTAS
Experiment: LVL THP1 HTRF (THP1 Homogeneous Time Resolved Fluorescence)
Type: cell-based
Details: THP1 cells, 18 h incubation with compound; for DC50: read-out: LVL THP1 HTRF EC50
How it was run: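 IRAK4 HTRF read-out (665/615 nm ratio, anti-IRAK4 d2 acceptor and K donor, 18 h dark incubation at room temperature) on lysates of THP-1 cells. Cells were treated 18 h at 37° C. with 20 nL compound in DMSO, in colorless RPMI with 10% FBS, with a duplicate CTG plate.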

Row | SMILES | LVL THP1 HTRF YMIN [%] | DC50 [nM]
1 | CC[C@@H]1CN(CC[C@H]2CC[C@H](c3cn(-c4cnc(-n5ncc6cc(C#N)cnc65)cc4N[C@H](C)C#N)nn3)CC2)CCN1c1ccc(C2CCC(=O)NC2=O)cc1 (stereo partly shown) [P-452] | 0.5 | 1.9
2 | C[C@H](C#N)Nc1cc(Nc2ncc(C#N)cc2Cl)ncc1-n1cc([C@H]2CC[C@H](CCN3CCN(c4ccc(N5CCC(=O)NC5=O)cn4)[C@H](C)C3)CC2)nn1 [P-455] | −5.9 | 7.8
3 | C[C@H](C#N)Nc1cc(-n2ncc3cc(C#N)cnc32)ncc1-n1cc([C@H]2CC[C@H](CCN3CC[C@@H](Oc4ccc(N5CCC(=O)NC5=O)cc4)C3)CC2)nn1 [P-458] | 15.0 | 128
4 | C[C@H](C#N)Nc1cc(-n2ncc3cc(C#N)cnc32)ncc1-n1cc([C@H]2CC[C@H](CCN3CCN(c4ccc(N5CCC(=O)NC5=O)cc4)C[C@H]3C)CC2)nn1 [P-459] | −0.5 | 2.5
5 | C[C@H](C#N)Nc1cc(-n2ncc3cc(C#N)c(N)nc32)ncc1-n1cc([C@H]2CC[C@H](CCN3CCN(c4ccc(N5CCC(=O)NC5=O)cn4)[C@H](C)C3)CC2)nn1 [P-463] | −3.4 | 0.1
6 | C[C@H](C#N)Nc1cc(-n2ncc3cc(C#N)cnc32)ncc1-n1cc([C@H]2CC[C@H](CCN3CC[C@H](Oc4ccc(N5CCC(=O)NC5=O)cc4)C3)CC2)nn1 [P-465] | 18.9 | 293
7 | C[C@H](C#N)Nc1cc(-n2ncc3cc(C#N)cnc32)ncc1-n1cc([C@H]2CC[C@H](CCN3CCN(c4ccc(N5CCC(=O)NC5=O)cc4)C[C@@H]3C)CC2)nn1 [P-468] | 2.3 | 17.2
8 | C[C@H](C#N)Nc1cc(-n2ncc3cc(C#N)cnc32)ncc1-n1cc([C@H]2CC[C@H](CCN3CCC4(c5ccc(N6CCC(=O)NC6=O)cc5)CC4C3)CC2)nn1 (stereo partly shown) [P-471] | 7.7 | 87.9
9 | C[C@H](C#N)Nc1cc(Nc2ncc(C#N)cc2Cl)ncc1-n1cc([C@H]2CC[C@H](CCN3CC4(CC(c5ccc(N6CCC(=O)NC6=O)cn5)C4)C3)CC2)nn1 [P-473] | 15.5 | 1000
10 | C[C@H](C#N)Nc1cc(-n2ncc3cc(C#N)cnc32)ncc1C(=O)N[C@H]1CC[C@H](CCN2CC[C@H]3[C@@H]2CCN3c2ccc(N3CCC(=O)NC3=O)c(Cl)c2)CC1 [P-475] | 6.4 | 47
11 | C[C@H](C#N)Nc1cc(-n2ncc3cc(C#N)cnc32)ncc1-n1cc([C@H]2CC[C@H](CCN3CCC(c4ccc5c(N6CCC(=O)NC6=O)nn(C)c5c4)CC3)CC2)nn1 [P-476] | 0.9 | 2
12 | C[C@H](C#N)Nc1cc(-n2ncc3cc(C#N)cnc32)ncc1-n1cc([C@H]2CC[C@H](CCN3CC(c4ccc(N5CCC(=O)NC5=O)cc4)C3)CC2)nn1 [P-477] | 18.6 | 263
13 | C[C@H](C#N)Nc1cc(-n2ncc3cc(C#N)cnc32)ncc1C(=O)N[C@H]1CC[C@H](CCN2CC[C@H]3[C@@H]2CCN3c2ccc(N3CCC(=O)NC3=O)c(F)c2)CC1 [P-481] | 9.4 | 38
14 | C[C@H](C#N)Nc1cc(-n2ncc3cc(C#N)cnc32)ncc1-n1cc([C@H]2CC[C@H](CCN3C[C@@H](C)N(c4ccc(N5CCC(=O)NC5=O)cc4)C[C@@H]3C)CC2)nn1 [P-483] | 3.4 | 11
15 | C[C@H](C#N)Nc1cc(-n2ncc3cc(C#N)cnc32)ncc1C(=O)N[C@H]1CC[C@H](CCN2CC[C@H]3[C@@H]2CCN3c2ccc(N3CCC(=O)NC3=O)c(F)c2)CC1 [P-484] | 52.3 | 1000
16 | C[C@H](C#N)Nc1cc(N2CCc3cc(C#N)cnc32)ncc1-n1cc([C@H]2CC[C@H](CCN3CCN(c4ccc(N5CCC(=O)NC5=O)cc4)CC3)CC2)nn1 [P-486] | 24.9 | 200
17 | Cc1cc(N2CC[C@H]3[C@@H]2CCN3CC[C@H]2CC[C@H](NC(=O)c3cnc(-n4ncc5cc(C#N)cnc54)cc3N[C@H](C)C#N)CC2)ccc1N1CCC(=O)NC1=O [P-489] | 84.3 | 1000
